Data set [1] is described as follows: Stability studies in pyridine and ammonia (TLC, Rf, UV, HPLC). The data set is classed as physicochemical. The note with it: 37° C., 18 hrs. As for the experimental part:
The 2′-deoxy, 2′,2′-difluorocytidine derivatives, N-Bz-Gemcitabine and 5′-O-DMT-(N-bz) Gemcitabine prepared as above, were tested for their stability.

Data set [2] relates to human colon adenocarcinoma cancerous cells HT29. The data set can be described thus: Flow cytometric DNA cell cycle profile, killing of colon cancer cells. The data set is classed as cell-based. The note with it: for killing colon cancer cells HT29, compared with Gemcitabine (Gemzar) alone at equivalent dosages: 20 and 50 ng/ml Gemzar equivalent, 1 hour treatment, then 47 hours in normal medium without drugs, FIG. 13.

Data set [3] deals with human colon normal cells CCD112CoN. The data set can be described thus: Flow cytometric DNA cell cycle profile, killing of colon normal cells. The note with it: 20 and 50 ng/ml Gemzar equivalent; 1 hour treatment, then 47 hours in normal medium without drugs; FIG. 14. The data set is classed as cell-based. As for the experimental part:
Monolayer cultures of human colon adenocarcinoma cancerous cells HT29 (American Type Culture Collection HTB-38), and human colon normal cells CCD112CoN (American Type Culture Collection CRL-1541) were grown in DMEM growth medium, or Dulbecco's modified Eagle's medium (DMEM; Sigma Chemical Co., St. Louis, Mo.) containing 10% fetal bovine serum (FBS; Biological Industries, Kibbutz, Israel). Incubation was in 10% CO2 at 37° C.
Gemzar (MW 299.5), or 2′-deoxy, 2′,2′-difluorocytidine hydrochloride for injection, as manufactured by Lilly France S.A., Fegersheim, France). Gemzar-ODNs were 2′-deoxy, 2′,2′-difluorocytidine (dFC, or difluorodeoxycitidine) linked to 4 oligodeoxynucleotide (ODN) sequences (synthesized by Chemgenes Corp, Wilmington, Mass.) as follows:
Aqueous stock solutions were prepared at the Gemzar or Gemzar-equivalent concentration of 0.2 mg/ml. Parallel monolayer cultures in log phase growth were treated for 1 hr at 37° C. with a final concentration of 0, 20 and 50 ng/ml of Gemzar or Gemzar equivalent from each of the 4 sequences of Gemzar-ODN that were synthesized. After the 1 hr pulse treatment with either Gemzar or Gemzar-ODNs, the cell cultures were reincubated for another 47 hr at 37° C. in normal DMEM growth medium without Gemzar or Gemzar-ODN. Control cultures were similar parallel cultures and had similar 1 hr and 47 hr reincubations, except without any Gemzar or Gemzar-ODN content. After the 47 hr reincubation, all cultures were evaluated at the same time for their DNA cell cycle profile using flow cytometry.
This was evaluated as previously described (Cell Death Differ. 4: 213-223, 1997; Exp. Cell Res. 240: 293-304, 1998). Propidium iodide (PI) stock solution was prepared at 50 ug/ml in tris buffered saline (1.21 mg/ml Tris, 0.584 mg/ml NaCl). Ribonuclease A (RNase A) was freshly added to the PI stock solution at 6 mg/ml immediately before use. Cells were harvested by scraping with a cell scraper and triturated to obtain a single cell suspension using a hypodermic syringe fitted with a 21-gauge needle. Cells were spun down at 1000 g for 5 min, and washed once in 5 ml phosphate buffered saline (PBS A, Oxoid, London, UK). Cells were then permeabilized by resuspending in 1% Bouin's fluid (15 parts 1.2% saturated aqueous picric acid, 5 parts formalin, 1 part glacial acetic acid) in PBS. Cells were repelleted and suspend in the PI-RNase for 1 hour over ice, before flow cytometric evaluation at ex/em 488/590 nm and 20,000 counts sample size. The Coulter Epics Elite ESP flow cytometer and Workstation program version 4.01 (Coulter Electronics, Hialeah, Fla.) were used with WinMDI version 2.8 (Scripps Research Institute, La Jolla, Calif.

[dFC] = 2'-deoxy-2',2'-difluorocytidine (gemcitabine) nucleoside, linked at the 5' end of the ODN; d = 2'-deoxy (DNA)

With `O=C(Nc1ccn([C@@H]2O[C@H](CO)[C@@H](O)C2(F)F)c(=O)n1)c1ccccc1` [Compound II, N-Benzoyl-2′-deoxy, 2′,2′-difluorocytidine], the “stability (breakdown) in pyridine and ammonia” value in data set [1] is “converted into 2′-deoxy, 2′,2′-difluorocytidine completely without any deterioration and byproduct formation”; in data set [1] (listed as N-Bz-Gemcitabine), “no breakdown of Gemcitabine, other than loss of the protecting group”. On to `COc1ccc(C(OC[C@H]2O[C@@H](n3ccc(NC(=O)c4ccccc4)nc3=O)C(F)(F)[C@@H]2O)(c2ccccc2)c2ccc(OC)cc2)cc1` [Compound III, 5′-O-DMT (N-Bz) 2′-deoxy, 2′,2′-difluorocytidine], for which the “stability (breakdown) in pyridine and ammonia” value in data set [1] was “no breakdown of Gemcitabine, other than loss of the protecting group”. In the case of `Cl.Nc1ccn([C@@H]2O[C@H](CO)[C@@H](O)C2(F)F)c(=O)n1` [Gemzar, 2′-deoxy, 2′,2′-difluorocytidine hydrochloride, reference compound], the “difference between the killing of cancer cells and normal cells” value in data set [2] (HT29 (FIG. 13) compared with CCD-112CO (FIG. 14) at equivalent dosages) is on record as “only minimal difference”. Consider “dFC GGA CG (NGGACG; sugars from the 5' end [dFC]1 d5, backbone, methylation of C and the base at N not given here) [GEMCITABINE-ODN-Seq. I.D.#7, Gemzar-ODN]”, for which, in data set [2], the “killing colon cancer cells HT29, compared with Gemcitabine (Gemzar) alone at equivalent dosages” value is recorded as “much more effectively than by treatment with GEMCITABINE alone”. In addition, the “killing colon normal cells CCD-112CO, compared with Gemcitabine (Gemzar) alone at equivalent dosages” value in data set [3] is listed as “more effectively than by treatment with GEMCITABINE alone”. For “dFC GGA CGT GGA ACG (NGGACGTGGAACG; sugars from the 5' end [dFC]1 d12, backbone, methylation of C and the base at N not given here) [GEMCITABINE-ODN-Seq. I.D.#9, Gemzar-ODN]”, the “killing colon cancer cells HT29, compared with Gemcitabine (Gemzar) alone at equivalent dosages” value in data set [2] is reported as “much more effectively than by treatment with GEMCITABINE alone”. The “killing colon normal cells CCD-112CO, compared with Gemcitabine (Gemzar) alone at equivalent dosages” value in data set [3] is reported as “more effectively than by treatment with GEMCITABINE alone”. As for “dFC GGA GCT GGA ACG (NGGAGCTGGAACG; sugars from the 5' end [dFC]1 d12, backbone, methylation of C and the base at N not given here) [GEMCITABINE-ODN-Seq. I.D.#10, Gemzar-ODN]”, the “killing colon cancer cells HT29, compared with Gemcitabine (Gemzar) alone at equivalent dosages” value in data set [2] is recorded as “much more effectively than by treatment with GEMCITABINE alone”. Besides, in data set [3], the “killing colon normal cells CCD-112CO, compared with Gemcitabine (Gemzar) alone at equivalent dosages” value is listed as “more effectively than by treatment with GEMCITABINE alone”.

Regarding “dFC GTG GAA CG (NGTGGAACG; sugars from the 5' end [dFC]1 d8, backbone, methylation of C and the base at N not given here) [GEMCITABINE-ODN-Seq. I.D.#8, Gemzar-ODN]”, in data set [2], the “killing colon cancer cells HT29, compared with Gemcitabine (Gemzar) alone at equivalent dosages” value was “much more effectively than by treatment with GEMCITABINE alone”. In addition, the “killing colon normal cells CCD-112CO, compared with Gemcitabine (Gemzar) alone at equivalent dosages” value in data set [3] is “more effectively than by treatment with GEMCITABINE alone”.
